Reference: US10626116B2, “Crystalline form of BTK kinase inhibitor and preparation method thereof” (Jiangsu Hengrui Medicine Co., Ltd., priority 2016, dated 2020)

Experiments:
[1] = Stability under lighting, heating and high humidity; purity detected by HPLC; format: physicochemical; details: for Purity by HPLC, 40° C.: heating 40° C.; for Purity by HPLC, 40° C. / Purity by HPLC, 60° C. / Purity by HPLC, RH 75% / Purity by HPLC, RH 90% / Purity by HPLC, Lighting: spread flat in the air; for Purity by HPLC, 60° C.: heating 60° C.; for Purity by HPLC, RH 75%: high humidity RH 75%; for Purity by HPLC, RH 90%: high humidity RH 90%; for Purity by HPLC, Lighting: lighting 4500 Lux
Method: The sample of amorphous form prepared in Example 1 and the sample of crystal form I prepared in Example 2 were spread flat in the air to test their stability under conditions of lighting (4500 Lux), heating (40° C., 60° C.), and high humidity (RH 75%, RH 90%), respectively. Samplings were carried out on Day 5 and Day 10.

[2] = Special stability study of crystal form I (grinding, heating, tableting); format: physicochemical
Text: Crystal form I of the compound of formula (I) prepared according to the method of Example 2 was ground, heated and tableted.

[3] = Grinding treatment for 10 minutes in a mortar under nitrogen atmosphere, batch 20150427G
[4] = Heating treatment for 3 hours at 80° C., batch 20150427H
[5] = Tableting treatment, batch 20150427P

Purity by HPLC, 40° C. ([1]; Day 0) [%]	Purity by HPLC, 40° C. ([1]; Day 5) [%]	Purity by HPLC, 40° C. ([1]; Day 10) [%]	Purity by HPLC, 60° C. ([1]; Day 0) [%]	Purity by HPLC, 60° C. ([1]; Day 5) [%]	Purity by HPLC, 60° C. ([1]; Day 10) [%]	Purity by HPLC, RH 75% ([1]; Day 0) [%]	Purity by HPLC, RH 75% ([1]; Day 5) [%]	Purity by HPLC, RH 75% ([1]; Day 10) [%]	Purity by HPLC, RH 90% ([1]; Day 0) [%]	Purity by HPLC, RH 90% ([1]; Day 5) [%]	Purity by HPLC, RH 90% ([1]; Day 10) [%]	Purity by HPLC, Lighting ([1]; Day 0) [%]	Purity by HPLC, Lighting ([1]; Day 5) [%]	Purity by HPLC, Lighting ([1]; Day 10) [%]	SMILES	further results
99.21	99.28	99.35	99.21	99.26	99.25	99.21	99.30	99.25	99.21	99.30	99.32	99.21	99.26	99.25	CC#CC(=O)N1CC[C@@H](n2cc(-c3ccc(Oc4c(F)cccc4F)cc3)c3c(N)n[nH]c(=O)c32)C1 [Crystal form I, (R)-4-amino-1-(1-(but-2-ynoyl)pyrrolidin-3-yl)-3-(4-(2,6-difluorophenoxy)phenyl)-1H-pyrrolo[2,3-d]pyridazin-7(6H)-one]	Stability compared with the amorphous sample ([1]; conditions of lighting, high temperature and high humidity): significantly better than that of the amorphous sample; Crystal form after treatment [2, 3]: Crystal; DSC peak after treatment [2, 3]: 239.32 °C; Crystal form after treatment [2, 4]: Crystal; DSC peak after treatment [2, 4]: 238.98 °C; Crystal form after treatment [2, 5]: Crystal; DSC peak after treatment [2, 5]: 241.19 °C; Stability of the crystal form ([2]; ground, heated and tableted (grinding, pressure and heating)): stable
97.70	97.64	97.57	97.70	97.68	97.52	97.70	97.52	97.59	97.70	97.50	97.48	97.70	97.67	97.62	CC#CC(=O)N1CC[C@@H](n2cc(-c3ccc(Oc4c(F)cccc4F)cc3)c3c(N)n[nH]c(=O)c32)C1 [Amorphous form, (R)-4-amino-1-(1-(but-2-ynoyl)pyrrolidin-3-yl)-3-(4-(2,6-difluorophenoxy)phenyl)-1H-pyrrolo[2,3-d]pyridazin-7(6H)-one]	
